Experimental findings from US9045468B2, “2,5-methano- and 2,5-ethano-tetrahydrobenzazepine derivatives and use thereof to block reuptake of norepinephrine, dopamine, and serotonin” (Albany Molecular Research, Inc., priority 2010, dated 2015) are described below.

The target of one assay is hSERT (Homo sapiens (Human), UniProt P31645). As to the kind of experiment: SERT radioligand binding assay ([125I]RTI-55, HEK-293 membranes). Particulars: recombinant HEK-293 membranes, [125I]RTI-55; read-out: Binding Affinity (IC50, nM) SERT. The method, then:
(§1) The medium was removed from the flasks and the cells rinsed with HBSS without Ca and without Mg. The cells were then incubated for 5-10 minutes in 10 mM Tris-Cl, pH 7.5, 5 mM EDTA before the cells were lifted with a combination of pipetting and scraping, as needed. The cell suspension was collected into centrifuge bottles and homogenized for 30 seconds with a Polytron homogenizer. The suspension was centrifuged for 30 minutes at 32,000×g, 4° C. The supernatant was decanted and the pellet resuspended and homogenized in 50 mM Tris-Cl, pH 7.5, 1 mM EDTA for 10 seconds. The suspension was then centrifuged again for 30 minutes at 32,000×g, 4° C. The supernatant was decanted and the pellet resuspended in 50 mM Tris-Cl, pH 7.5, 1 mM EDTA and briefly homogenized. A Bradford assay (Bio-rad) was performed and the membrane preparation diluted to 2 mg/ml with 50 mM Tris-Cl, pH 7.5, 1 mM EDTA. Aliquots were prepared, and then frozen and stored at −80° C.
Compounds were dissolved in 100% DMSO at a concentration 100 times the desired highest assay concentration, serially diluted 1:3 in 100% DMSO, and 0.4 μl/well of each solution was dispensed to a Nunc polypropylene, round bottom, 384-well plate. […] The contents of the assay plate were then transferred to a Millipore MultiscreenHTS GF/B filter plate which was pretreated with 0.5% PEI for at least one hour. The plate was vacuum filtered and washed with 7 washes of […] 50 mM Tris-Cl, pH 7.5, 120 mM NaCl, 5 mM KCl chilled to 4° C. The filtration and washing were completed in less than 90 seconds. The plates were air-dried overnight, 12 μl/well of MicroScint scintillation fluid added, and the plates counted in a Trilux.
(§2) Each plate was run in triplicate, and the concentration response curve thus generated was fit using the four-parameter dose response equation, Y=Bottom+(Top-Bottom)/(1+10^((Log IC50−X)*HillSlope)) in order to determine the IC50 value for each compound. The radioligand concentration chosen for each assay corresponds to the Kd concentration determined through saturation binding analysis for each assay.

A further assay concerns the target hDAT (Homo sapiens (Human), UniProt Q01959). As to the kind of experiment: DAT radioligand binding assay ([125I]RTI-55, HEK-293 membranes). The conditions noted are these: recombinant HEK-293 membranes, [125I]RTI-55; read-out: Binding Affinity (IC50, nM) DAT. The protocol: as §1, with “Recombinant HEK-293 cells expressing either the hSERT, hDAT, or hNET proteins were harvested from T-175 flasks as follows. The medium” for “The medium”
Compounds were dissolved in 100% DMSO at a concentration 100 times the desired highest assay concentration, serially diluted 1:3 in 100% DMSO, and 0.4 μl/well of each solution was dispensed to a Nunc polypropylene, round bottom, 384-well plate. […] 20 ul/well of a 2× membrane preparation (12.5 μg/ml in 30 mM sodium phosphate buffer, pH 7.9 at 4° C.) and 20 μl/well of a 2× radioligand solution (250 pM [^125I]RTI-55 in 30 mM sodium phosphate buffer, pH 7.9 at 4° C.) were added to the well and the reaction incubated for 1 hour at room temperature. The contents of the assay plate were then transferred to a Millipore MultiscreenHTS GF/B filter plate which was pretreated with 0.5% PEI for at least one hour. The plate was vacuum-filtered and washed with 7 washes of 100 μl/well 50 mM Tris-Cl, pH 7.5, 120 mM NaCl, 5 mM KCl chilled to 4° C. The filtration and washing were completed in less than 90 seconds. The plates were air-dried overnight, 12 μl/well of MicroScint scintillation fluid added, and the plates counted in a Trilux.
as §2

For the next assay, the target named is hNET (Homo sapiens (Human), UniProt P23975). As to the kind of experiment: NET radioligand binding assay ([3H]nisoxetine, HEK-293 membranes). Particulars: recombinant HEK-293 membranes, [3H]nisoxetine; read-out: Binding Affinity (IC50, nM) NET. The protocol:
as §1
Compounds were dissolved in 100% DMSO at a concentration 100 times the desired highest assay concentration, serially diluted 1:3 in 100% DMSO, and 1.0 μl/well of each solution was dispensed to a Nunc polypropylene, round bottom, 384-well plate. […] 50 μl/well of a 2× membrane preparation (0.4 mg/ml in 50 mM Tris-Cl, pH 7.5, 120 mM NaCl, 5 mM KCl) and 50 μl/well of a 2× radioligand solution (4 nM [^3H]nisoxetine in 50 mM Tris-Cl, pH 7.5, 120 mM NaCl, 5 mM KCl) were added to the well and the reaction incubated for 1 hour at room temperature. The contents of the assay plate were then transferred to a Millipore MultiscreenHTS GF/B filter plate which was pretreated with 0.5% PEI for at least one hour. The plate was vacuum filtered and washed with 7 washes of 100 μl/well 50 mM Tris-Cl, pH 7.5, 120 mM NaCl, 5 mM KCl chilled to 4° C. The filtration and washing were completed in less than 90 seconds. The plates were air-dried overnight, 12 μl/well of MicroScint scintillation fluid added, and the plates counted in a Trilux.
as §2

In general, IC50 refers to the concentration at which inhibition is half-maximal.

Chain of hSERT (P31645 whole entry): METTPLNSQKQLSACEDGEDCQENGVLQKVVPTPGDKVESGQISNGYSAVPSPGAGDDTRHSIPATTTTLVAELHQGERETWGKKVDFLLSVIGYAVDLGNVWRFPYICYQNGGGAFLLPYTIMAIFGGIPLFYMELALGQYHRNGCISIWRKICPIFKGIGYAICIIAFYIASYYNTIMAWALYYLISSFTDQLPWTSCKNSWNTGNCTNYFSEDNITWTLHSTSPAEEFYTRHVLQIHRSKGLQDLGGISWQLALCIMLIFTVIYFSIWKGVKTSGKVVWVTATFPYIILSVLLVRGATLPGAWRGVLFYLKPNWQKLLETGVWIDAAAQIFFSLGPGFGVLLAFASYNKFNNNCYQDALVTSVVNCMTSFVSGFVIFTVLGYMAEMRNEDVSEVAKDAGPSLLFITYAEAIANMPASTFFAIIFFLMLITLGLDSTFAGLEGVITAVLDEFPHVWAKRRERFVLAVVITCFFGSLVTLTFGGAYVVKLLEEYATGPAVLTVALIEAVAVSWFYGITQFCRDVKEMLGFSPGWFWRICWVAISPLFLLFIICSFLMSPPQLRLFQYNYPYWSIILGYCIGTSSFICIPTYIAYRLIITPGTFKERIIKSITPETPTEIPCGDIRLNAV
Chain of hDAT (Q01959 whole entry): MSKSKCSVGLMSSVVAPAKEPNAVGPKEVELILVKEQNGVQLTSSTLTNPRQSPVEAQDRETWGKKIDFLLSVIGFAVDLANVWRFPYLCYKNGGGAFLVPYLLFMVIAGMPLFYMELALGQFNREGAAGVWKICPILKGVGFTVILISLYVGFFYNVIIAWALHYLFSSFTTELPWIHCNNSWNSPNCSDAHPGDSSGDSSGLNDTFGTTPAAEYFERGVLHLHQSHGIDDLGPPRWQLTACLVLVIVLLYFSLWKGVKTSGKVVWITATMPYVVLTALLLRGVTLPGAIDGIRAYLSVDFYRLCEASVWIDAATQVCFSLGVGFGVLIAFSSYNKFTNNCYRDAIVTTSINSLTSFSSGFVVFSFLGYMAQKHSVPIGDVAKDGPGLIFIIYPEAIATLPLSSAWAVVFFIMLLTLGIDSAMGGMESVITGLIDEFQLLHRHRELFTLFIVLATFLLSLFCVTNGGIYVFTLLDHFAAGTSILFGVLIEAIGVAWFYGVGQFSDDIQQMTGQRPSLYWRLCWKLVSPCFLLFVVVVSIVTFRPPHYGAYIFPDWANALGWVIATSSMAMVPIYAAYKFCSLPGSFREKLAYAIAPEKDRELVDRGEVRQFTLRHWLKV
Chain of hNET (P23975 whole entry): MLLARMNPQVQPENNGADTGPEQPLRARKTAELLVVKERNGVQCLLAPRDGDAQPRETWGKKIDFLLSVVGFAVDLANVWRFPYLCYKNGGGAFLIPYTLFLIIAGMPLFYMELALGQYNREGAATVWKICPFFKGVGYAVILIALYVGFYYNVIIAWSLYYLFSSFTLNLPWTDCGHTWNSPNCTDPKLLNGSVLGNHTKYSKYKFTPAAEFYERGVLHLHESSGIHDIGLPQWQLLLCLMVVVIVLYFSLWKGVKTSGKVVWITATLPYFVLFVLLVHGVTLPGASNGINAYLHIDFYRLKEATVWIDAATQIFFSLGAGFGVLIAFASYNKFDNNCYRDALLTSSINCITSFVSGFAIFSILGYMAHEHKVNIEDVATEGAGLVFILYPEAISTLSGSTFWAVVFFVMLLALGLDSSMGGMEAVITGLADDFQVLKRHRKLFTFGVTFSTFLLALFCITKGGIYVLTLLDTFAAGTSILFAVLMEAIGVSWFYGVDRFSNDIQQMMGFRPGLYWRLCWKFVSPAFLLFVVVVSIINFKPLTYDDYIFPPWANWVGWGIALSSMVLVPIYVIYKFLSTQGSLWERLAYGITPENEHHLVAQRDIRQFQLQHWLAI

Consider `O=c1[nH]c2ccc(-c3ccc4c(c3)CN3CCC4(c4ccc(Cl)c(Cl)c4)C3)cc2o1` (single isomer, unassigned) [11(+), 8-(2-oxo-2,3-dihydrobenzo[d]oxazol-6-yl)-5-(3,4-dichlorophenyl)-2,5-methano-2,3,4,5-tetrahydro-1H-benzo[c]azepine], for which the IC50 at hSERT was 3.5 nM; at hDAT it was 50 nM; at hNET, 369 nM.
Taken in the same sequence, the figures for `O=c1n(-c2ccc3c(c2)CN2CCC3(c3ccc(Cl)cc3)CC2)nc2ccccn12` [Example 23, 2-(5-(4-chlorophenyl)-2,5-ethano-2,3,4,5-tetrahydro-1H-benzo[c]azepin-8-yl)-[1,2,4]triazolo[4,3-a]pyridin-3(2H)-one] were 1.5 nM, 37.5 nM and 176 nM.
As to `Oc1ccc(-c2ccc3c(c2)CN2CCC3(c3ccc(Cl)c(Cl)c3)CC2)nn1` [Example 41, 6-(5-(3,4-dichlorophenyl)-2,5-ethano-2,3,4,5-tetrahydro-1H-benzo[c]azepin-8-yl)pyridazin-3-ol], the results for the IC50 at hSERT, at hDAT and at hNET were 5 nM, 5.1 nM and 79.2 nM, respectively.
With `Oc1ccc2c(c1)CN1CCC2(c2ccc(Cl)cc2)CC1` [Example 13, 5-(4-chlorophenyl)-2,5-ethano-2,3,4,5-tetrahydro-1H-2-benzo[c]azepin-8-ol], the IC50 at hSERT turned out to be 16.3 nM; on hDAT it was 21.1 nM; on hNET, 691 nM.
`Clc1ccc(C23CCN(Cc4cc(-c5ccc6ncnn6c5)ccc42)C3)cc1Cl` (single isomer, unassigned) [10(+), 8-([1,2,4]triazolo[1,5-a]pyridin-6-yl)-5-(3,4-dichlorophenyl)-2,5-methano-2,3,4,5-tetrahydro-1H-benzo[c]azepine]: the IC50 at hSERT worked out at 4.6 nM; on hDAT it was 49.5 nM; on hNET, 242 nM.
Taken in the same sequence, the figures for `Fc1ccc(C23CCN(Cc4cc(-c5ccc(C(F)(F)F)nn5)ccc42)C3)cc1Cl` (single isomer, unassigned) [56(−), 5-(3-chloro-4-fluorophenyl)-2,5-methano-8-(6-(trifluoromethyl)pyridazin-3-yl)-2,3,4,5-tetrahydro-1H-benzo[c]azepine] were 57.8 nM, 243 nM and 798 nM.
Taken in the same sequence, the figures for `COc1ccc(-c2ccc3c(c2)CN2CCC3(c3ccc(Cl)c(Cl)c3)CC2)nn1` [Example 40, 5-(3,4-dichlorophenyl)-8-(6-methoxypyridazin-3-yl)-2,5-ethano-2,3,4,5-tetrahydro-1H-benzo[c]azepine] were 9.8 nM, 5.9 nM and 148 nM.
Turning to `Fc1ccc(C23CCN(CC2)Cc2cc(-c4ccc(C(F)(F)F)nn4)ccc23)cc1Cl` [Example 53, 5-(3-chloro-4-fluorophenyl)-2,5-ethano-8-(6-(trifluoromethyl)pyridazin-3-yl)-2,3,4,5-tetrahydro-1H-benzo[c]azepine], the IC50 was 2.1 nM at hSERT, 120 nM at hDAT and 345 nM at hNET.
Turning to `CS(=O)(=O)c1ccc(-c2ccc3c(c2)CN2CCC3(c3ccc(Cl)cc3)C2)cc1` (racemic) [Example 9, rac-5-(4-chlorophenyl)-2,5-methano-8-(4-(methylsulfonyl)phenyl)-2,3,4,5-tetrahydro-1H-benzo[c]azepine], the IC50 at hSERT was 23.5 nM; at hDAT, 435 nM; on hNET it was 303 nM.
Regarding `Clc1ccc(C23CCN(CC2)Cc2cc(-c4cnc5ccccc5n4)ccc23)cc1` [Example 21, 5-(4-chlorophenyl)-2,5-ethano-8-(quinoxalin-2-yl)-2,3,4,5-tetrahydro-1H-benzo[c]azepine], the IC50 is 5.2 nM at hSERT, 353 nM at hDAT and 1540 nM on hNET.
As to `FC(F)(F)c1ccc(C23CCN(CC2)Cc2cc(Oc4ccc(C(F)(F)F)nn4)ccc23)cc1` [Example 50, 2,5-ethano-5-(4-(trifluoromethyl)phenyl)-8-(6-(trifluoromethyl)pyridazin-3-yloxy)-2,3,4,5-tetrahydro-1H-benzo[c]azepine], the IC50 on hSERT turned out to be 10.9 nM; on hDAT, 614 nM; at hNET it was 1050 nM.
The like results for `N#Cc1ccc(-c2ccc3c(c2)CN2CCC3(c3ccc(Cl)cc3)C2)cc1` (racemic) [Example 8, rac-4-(5-(4-chlorophenyl)-2,5-methano-2,3,4,5-tetrahydro-1H-benzo[c]azepin-8-yl)benzonitrile] were, in that order, 16.6 nM, 450 nM and 1210 nM.
As to `Clc1ccc(C23CCN(CC2)Cc2cc(OCCCc4ccncc4)ccc23)cc1` [Example 35, 5-(4-chlorophenyl)-2,5-ethano-8-(3-(pyridin-4-yl)propoxy)-2,3,4,5-tetrahydro-1H-benzo[c]azepine], the IC50 on hSERT turned out to be 4.2 nM; at hDAT, 205 nM; at hNET it was 54.8 nM.
Taken in the same sequence, the figures for `Cc1nnc2ccc(-c3ccc4c(c3)CN3CCC4(c4ccc(Cl)cc4)CC3)cn12` [Example 20, 5-(4-chlorophenyl)-2,5-ethano-8-(3-methyl-[1,2,4]triazolo[4,3-a]pyridin-6-yl)-2,3,4,5-tetrahydro-1H-benzo[c]azepine] were 12.1 nM, 220 nM and 1020 nM.
Taken in the same sequence, the figures for `Cc1cc2ncnn2cc1-c1ccc2c(c1)CN1CCC2(c2ccc(Cl)c(Cl)c2)CC1` [Example 43, 5-(3,4-dichlorophenyl)-2,5-ethano-8-(7-methyl-[1,2,4]triazolo[1,5-a]pyridin-6-yl)-2,3,4,5-tetrahydro-1H-benzo[c]azepine] were 18.9 nM, 43.8 nM and 373 nM.
Taken in the same sequence, the figures for `Fc1ccc(C23CCN(CC2)Cc2cc(-c4ccc5ncnn5c4)ccc23)cc1Cl` [Example 54, 8-([1,2,4]triazolo[1,5-a]pyridin-6-yl)-5-(3-chloro-4-fluorophenyl)-2,5-ethano-2,3,4,5-tetrahydro-1H-benzo[c]azepine] were 4.4 nM, 78 nM and 541 nM.
